Values joined by “and” are separate entries in the source; they are usually repeats but may differ in a detail not shown here. Identical values can stand only once.
Assays:
[1] = Dose formulation stability by HPLC with radioactivity detection; type: physicochemical; settings: 20 mg/ml in LCO with 0.1% 1-thioglycerol
Method: PPI-1011 and [^14C]PPI-1011 were formulated together in liquid coconut oil (LCO) containing 0.1% 1-thioglycerol for oral dosing. For single dose studies, PPI-1011 and [^14C]PPI-1011 were combined to generate an oral formulation with a concentration of 20 mg/ml and 40 μCi/ml on the day before dosing and stored at 4°C. Formulation for the repeat dosing QWBA experiment was made on the day prior to the first dose with a concentration of 20 mg/ml and 20 μCi/ml. This formulation was then aliquoted and stored frozen at −20°C until the day of use. Concentration and radiochemical purity of all formulations were confirmed by HPLC prior to dosing.
Radiochemical concentrations and purity of the oral dose formulations were all confirmed to be >97% by HPLC with radioactivity detection. The mean radioactivity concentrations of dose formulations were 21.24 μCi/g. Representative radiochromatograms obtained from analysis of dose formulation of [^14C]PPI-1011 are shown in Supplementary Figure S1. The retention time of [^14C]PPI-1011 was approximately 12 min. The stability of the dose formulation at 20 mg/ml concentration was examined at 4°C and at −20°C for up to 24 h. The results are shown in Supplementary Figure S2. […]

[2] = Plasma pharmacokinetics of total radioactivity after a single oral dose of [^14C]PPI-1011 100 mg/kg; type: in vivo, Sprague-Dawley rats; settings: single oral 100 mg/kg; for AUCInf / AUClast / Cmax / MRTInf / t1/2 / tmax / AUC Extr: plasma total radioactivity
Method: The pharmacokinetics of [^14C]PPI-1011 were performed in four rats that were surgically implanted with femoral artery catheters (FAC) for blood collection at least 2 days before dosing began. [^14C]PPI-1011 was administered as a single oral dose at 100 mg/kg (200 μCi/kg). Blood samples were collected in EDTA tubes and centrifuged to obtain plasma at 1, 3, 6, 12, 18, 24, 48, and 72 h after drug administration. Duplicate aliquots of plasma (∼25 μl or higher) were transferred to liquid scintillation vials and the weights of sample aliquots were recorded. Aliquots were mixed with Ultima Gold (5 ml) as scintillation fluid and total radioactivity was determined by liquid scintillation counting (LSC) and used to calculate the total radioactive concentration.
The PK calculations of total radioactivity in plasma were analyzed with non-compartmental analyses using Phoenix® WinNonlin® software (version 8.1). Statistical calculations for the other studies were limited to simple parameters such as means or averages, standard deviations (sd), and percentages (%). The amount of compound equivalents (Eq) in samples was calculated as concentrations expressed in μg Eq/g. Dose, MCID™ generated tissue concentrations, pharmacokinetic, and radioanalysis data were compiled using Microsoft Excel for Microsoft 365, Version 2010.

[3] = Mass balance and excretion study, single oral dose 100 mg/kg; type: in vivo, Sprague-Dawley rats
Method: Four male rats were administered a single oral dose of [^14C]PPI-1011 at 100 mg/kg (200 μCi/kg). Feces, urine, and the cage rinse samples were collected at pre-determined times up to 168 h post-dose (HPD). The expired air was collected using a carbon dioxide trapping apparatus equipped with airflow apparatus. Expired [^14C]CO2 was collected for two of the four dosed animals for 24 h after the dose in a solution of ethanolamine:2-methoxyethanol (1:3, v/v) in two traps. Rats were sacrificed by overdose of CO2 and each cage was rinsed with 25% ethanol in water (>50 ml) at the end of the study. The cage rinse sample and the expired [^14C]CO2 was stored at 4°C.
Diluted dose solutions, plasma, urine, and cage rinse were analyzed in duplicate by LSC, as described above. The expired CO2 was analyzed the same day it was collected by mixing a 1 ml aliquot of the carbon dioxide absorbents with 5 ml of Hionic-Fluor for radioactivity concentrations with LSC. Feces samples were homogenized in 5-fold volume of purified water then duplicate fecal homogenate aliquots were transferred to Combusto Cones and combusted with a Sample Oxidizer (Model A307, Perkin Elmer) equipped with an Oximate 80 Robotic Automatic Samples. The [^14C]CO2 generated by the combustion was also collected in Carbo Sorb E and radioactivity was determined with PermaFluor as the scintillant using a Tri-Carb LSC.

CC/C=C\C/C=C\C/C=C\C/C=C\C/C=C\C/C=C\CCC(=O)O[C@H](CO[14CH2]CCCCCCCCCCCCCCC)COC(=O)CCCCC1CCSS1 (some centres unmarked) [[^14C]PPI-1011]
Radioactive purity of dose formulation after storage (stability) ([1]; up to 24 h at 4°C): 96.5% | Radioactive purity of dose formulation after storage (stability) ([1]; up to 24 h at −20°C): 97.2% | Mean total radioactivity in plasma ([2]; 1 h): approximately 500 ng Eq/g | Mean total radioactivity in plasma ([2]; 6 h): ~27,000 ng Eq/g | Mean total radioactivity in plasma ([2]; 72 h): ~4,000 ng Eq/g | AUCInf ([2]; Mean of 4 rats): 867,000 h*ng/ml | AUClast ([2]; Mean of 4 rats): 608,000 h*ng/ml | Cmax ([2]; Mean of 4 rats): 27,900 ng/ml | MRTInf ([2]; Mean of 4 rats): 55 h | t1/2 ([2]; Mean of 4 rats): 40 h | tmax ([2]; Mean of 4 rats): 7.5 h | AUC Extr ([2]; Rat 1): 6.8% | AUCInf ([2]; Rat 1): 753,000 h*ng/ml | AUClast ([2]; Rat 1): 702,000 h*ng/ml | Cmax ([2]; Rat 1): 30,000 ng/ml | MRTInf ([2]; Rat 1): 27 h | t1/2 ([2]; Rat 1): 18 h | tmax ([2]; Rat 1): 6.0 h | AUC Extr ([2]; Rat 2): 31% | AUCInf ([2]; Rat 2): 953,000 h*ng/ml | AUClast ([2]; Rat 2): 659,000 h*ng/ml | Cmax ([2]; Rat 2): 21,500 ng/ml | MRTInf ([2]; Rat 2): 61 h | t1/2 ([2]; Rat 2): 42 h | tmax ([2]; Rat 2): 6.0 h | AUC Extr ([2]; Rat 3): 6.5% | AUCInf ([2]; Rat 3): 542,000 h*ng/ml | AUClast ([2]; Rat 3): 507,000 h*ng/ml | Cmax ([2]; Rat 3): 42,500 ng/ml | MRTInf ([2]; Rat 3): 23 h | t1/2 ([2]; Rat 3): 19 h | tmax ([2]; Rat 3): 6.0 h | AUC Extr ([2]; Rat 4): 54% | AUCInf ([2]; Rat 4): 1,220,000 h*ng/ml | AUClast ([2]; Rat 4): 565,000 h*ng/ml | Cmax ([2]; Rat 4): 17,400 ng/ml | MRTInf ([2]; Rat 4): 110 h | t1/2 ([2]; Rat 4): 80 h | tmax ([2]; Rat 4): 12 h | Dose recovered in feces ([3]; 168 h collection period, single oral 100 mg/kg): 42.51 ± 7.16% | Total dose excreted in urine and feces ([3]; between 24 and 48 h): approximately 6% | Additional excretion in urine and feces ([3]; between 48 and 168 h): < 3% | Compound-associated radioactivity absorbed by the body ([3]; single oral 100 mg/kg): over 50% | Dose found in urine ([3]; up to day seven, single oral 100 mg/kg, 100 mg/kg): 2.40 ± 0.59% and < 2.5% | Dosed radioactivity recovered in urine and feces including cage rinses ([3]; within 168 h collection period, single oral 100 mg/kg): 45.10 ± 7.34% | Compound-associated radioactivity excreted in the feces ([3]; within the first 24 h): approximately 40% | Compound-associated radioactivity excreted in the urine ([3]; within the first 24 h): ~2.5%

Source: article PMC9081329, “Pharmacokinetics, Mass Balance, Excretion, and Tissue Distribution of Plasmalogen Precursor PPI-1011” (Frontiers in Cell and Developmental Biology, 2022)
